Key:
[1] = system: ADP-induced platelet aggregation; thrombus formation; conditions: in words; cited from earlier work
[2] = system: ADP-induced platelet aggregation; conditions: Zamecnik '550 Table 3, read-out: ID50 (the source's name); cited from earlier work
Leukocytes = assay: Distribution of ^125 I-labeled CHCl-AP4 A into blood cell fractions: leukocytes; assay type: binding, human
Method: There are, however, a variety of purinoceptors on other cell types. AP4 A analogues may bind not only to platelets but also to the erythrocytes and leukocytes when whole blood is treated with the agents. […] Platelets were separated by a gradual centrifugation, the packed red cells with buffy coats (leukocytes) were mixed, and fractionated by means of histopaque gradient separation (A. Boyum, Scand J. Clin. Lab. Invest. 21(suppl 97):77 (1968)). The cell fractions were washed twice and final suspensions were counted for cell number and the radioactivity. Percent distribution was calculated based on the CBC data of whole blood. Binding sites are expressed in the values per cells.

[3] = system: ADP-induced platelet aggregation; assay: Inhibition kinetic study, ADP-induced platelet aggregation; assay type: cell-based, human
Method: Unless otherwise provided below, the experimental procedures were performed according to the procedures provided in U.S. Pat. No. 5,049.550 (Zamecnik '550), the entire contents of which are incorporated herein by reference. Some alternative procedures (e.g., release reaction, PF3 assays) and a number of additional studies also are provided (e.g., cytoplasmic calcium mobilization, fibrinogen binding site, agonists other than ADP, platelet cAMP and distribution of CHCl-AP4 A into blood components). Blood was collected in a 0.1 volume of 3.8% sodium citrate from healthy human volunteers who had abstained from antiplatelet agents for at least 10 days. Platelet rich plasma (PRP) was separated by a gradual centrifugation and adjusted to 3.3×10^8 platelets per ml plasma. PRP has been utilized in the Examples unless otherwise stated.
An initial screening was performed for inhibitory effects of several agents (including, e.g., thio-CHCl-AP4 A and CHCl-AP4 A as reference agent)) on platelet aggregation induced by ADP. Platelet aggregation was measured with platelet-rich plasma (PKP) by the turbidimetric method of Born (J. Physiol. 162:67, 1962) in an aggregometer (Chrono-log, Model 530 VS). Platelet aggregation induced by 5 μM ADP in the absence or presence of 5 μM agents was examined. […]

Structure (SMILES)	effect on thrombus formation on administration to a mammal [1]	IC50 [2] [µM]	Distribution (%) (Leukocytes; 23 μM, 22° C., 30 minutes, mean of two)	Binding Sites (Leukocytes; gross estimation per cell)	binding sites per surface area, relative value (Leukocytes; relative, leukocytes)	nature of inhibition [3]	Ki ([3]; ADP-induced aggregation, read-out: inhibition constant (Ki)) [µM]
Nc1ncnc2c1ncn2[C@@H]1O[C@H](COP(=O)(O)OP(=O)(O)C(Cl)P(=O)(O)OP(=O)(O)OC[C@H]2O[C@@H](n3cnc4c(N)ncnc43)[C@H](O)[C@@H]2O)[C@@H](O)[C@H]1O (stereo partly shown) [CHCl-AP4 A]	inhibit thrombus formation	3	1.94	7.39 × 10^7 per cells	1000	–	–
Nc1ncnc2c1ncn2[C@@H]1O[C@H](COP(O)(=S)OP(=O)(O)C(Cl)P(=O)(O)OP(O)(=S)OC[C@H]2O[C@@H](n3cnc4c(N)ncnc43)[C@H](O)[C@@H]2O)[C@@H](O)[C@H]1O (stereo partly shown) [Thio-CHCl-AP4 A, P^1, P^4 -dithio -P^2 -P^3 monochloromethylene 5', 5'" diadenosine P^1, P^4 -tetraphosphate]	–	–	–	–	–	competitive inhibition	0.33
